Data on one compound can be found in patent US20080306126A1, “Peroxisome proliferator activated receptor treatment of hyperhomocysteinemia and its complications” (priority 2004, published 2008).

SMILES strings stand for the structures.

What all share (assay type): in vivo, Sprague Dawley rats
Test [1] has as its system balloon catheter-injured carotid arteries. The test is described as follows: Balloon catheter injury of the carotid artery: development of intimal hyperplasia (I/M ratio). The following applies: for I/M ratio of representative micrograph (single animal): 21 days after injury; for I/M (intimal/medial ratio), group mean: three weeks after catheter injury. The procedure: (§1) Ten-week-old female Sprague Dawley rats were obtained from Harlan Laboratories (Indianapolis, Ind.). After an acclimatization period of one week, they were fed a powdered control diet with or without methionine for one week. After one week on the normal or methionine diet, an aqueous preparation rosiglitazone (3.0 mg/kg/d) or vehicle was administered by gavage. The methionine diet was prepared with 10 g of L-methionine obtained from Sigma Chemical Company in St. Louis, Miss., added to 10 kg of powdered feed and thoroughly mixed. The rats were divided into four groups (n=7/group) and fed a) control diet; b) control diet with administration of rosiglitazone; c) methionine diet; and d) methionine diet with rosiglitazone.
Balloon catheter injury of to the carotid artery was induced as previously published (27). Briefly, a 2.0 mm PTCA obtained from Boston Scientific, Inc. in Quincy, Mass. was introduced through the femoral artery to the left carotid. The balloon was inflated to 4 atmospheres for 20 seconds and then deflated to 2 atmospheres and dragged down to the aorta. The animals were continued on their respective diets and rosiglitazone treatment was continued as indicated for three weeks after the surgery. The surgical procedures were conducted under anesthesia in a totally aseptic atmosphere. All rats had free access to the feed and water, and were maintained in a 12 hour day/light cycle.
The carotid arteries were separated and flushed with zinc buffered formalin. Each artery was cut from top into 4 equal segments and placed sequentially for embedding in paraffin. Sections no thicker then 6 um were cut and stained with hemotoxalin and eosin for microscopy. All four segments were read and the intimal/medial (I/M) ratio was calculated using Image-Pro software (NIH). The mean of the I/M ratios of the 4 sections reflected the I/M for one animal.

Test [2] is described as follows: Serum homocysteine levels by high pressure liquid chromatography. As to the method:
as §1
(§2) Before the beginning of the experiment, and at the time of sacrificing the animal a blood sample was obtained from each rat. At the end of the experiment, rats were sacrificed using a carbon dioxide chamber for harvesting tissues. Samples of blood and liver were collected and immediately processed. The serum and liver samples were stored frozen.
(§3) The Hcy levels were measured by high pressure liquid chromatography according to an established method (28,29). Cystathionine-β-synthase (CβS) was assayed in the liver samples, and the procedure followed was as previously published (26).

Test [3] concerns cystathionine-β-synthase (CβS). As to the kind of experiment: Cystathionine-β-synthase activity assayed in liver samples of treated rats. The following applies: methionine diet with rosiglitazone, methionine diet alone 0.35+/−0.05. The procedure: as §1, §2, §3

For `CN(CCOc1ccc(CC2SC(=O)NC2=O)cc1)c1ccccn1` (stereo not drawn) [rosiglitazone], the “I/M ratio of representative micrograph (single animal)” value came out at 0.19 in test [1] (FIG. 1 micrograph C: control diet with rosiglitazone) and 0.17 in test [1] (FIG. 1 micrograph D: methionine diet with rosiglitazone). Moreover, the “I/M (intimal/medial ratio), group mean” value in test [1] (control diet with rosiglitazone 3.0 mg/kg/d by gavage, control diet alone 0.18+/−0.05) is given as 0.21+/−0.03; in test [1] (methionine diet with rosiglitazone 3.0 mg/kg/d by gavage, methionine diet alone 0.82+/−0.21) it was 0.28+/−0.12; in test [1] (methionine diet with rosiglitazone 3.0 mg/kg/d by gavage, methionine diet alone 0.82+/−0.21, listed as Rosiglitazone) it was 0.27+/−0.12. In addition, the serum homocysteine level in test [2] (control diet with rosiglitazone, control diet alone 6.3+/−0.04 μM) stood at 5.1 ± 0.6 µM. In test [2] (methionine diet with rosiglitazone treatment (background summary)), the homocysteine level came out at 16.4 ± 1.7 µM. In test [2] (methionine diet with rosiglitazone, methionine diet alone 28.9+/−3.2 μM), the serum homocysteine concentration turned out to be 16.4 ± 1.7 µM. The CβS activity in test [3] was 0.57+/−0.1 μmoles/mg protein.
